{
  "source": "patent US20070197452A1",
  "about": "“Treatment of amyloid-related diseases” (priority 2006, published 2007)",
  "key": {"[1]": {"test_system": "TgCRND8 mice", "experiment": "Morris water maze spatial reference memory test", "format": "in vivo, mouse", "details": "prophylactic, 6 weeks to 6 months of age", "method": "Behavioural tests: Morris Water Maze testing was performed as previously described. After non-spatial pre-training, mice underwent place discrimination training for 5 days with 4-trials per day, followed by a cued visible platform to rule out general motivational, learning deficits and motor problems, and a probe trial to evaluate memory. […] Open field test for motor activity was preformed as described previously. Duration of walking, pausing and grooming were analyzed as indices of spontaneous locomotor activity. Sensorimotor function was examined with an EconomexTM accelerating rotarod (Columbus Instruments, Columbus, Ohio), as described elsewhere. The rod was set to accelerate at a rate of 0.2 r.p.m./s, from an initial, constant speed of 5 r.p.m. Latency to fall was recorded in four daily trials, conducted at 30 min intervals. All mice were trained for seven days before testing. The test day performance score for each animal was obtained by summing its latency to fall over the four trials Behavioral tests. Morris water maze testing was carried out as previously described. After nonspatial pretraining, mice underwent place discrimination training for 5 d with four trials per day, followed by a cued visible platform trial and a probe trial. An open-field test for motor activity was carried out as described previously. Sensorimotor function was assessed with an Economex accelerating rotarod (Columbus Instruments) as previously described. Behavioural tests. Morris Water Maze testing was performed as previously described. After non-spatial pre-training, mice underwent place discrimination training for 5 days with 4-trials per day, followed by a cued visible platform to rule out general motivational, learning deficits and motor problems, and a probe trial to evaluate memory. The probe trial was conducted at 72 h after the last testing, and used an annulus-crossing index to assess spatial recall. The annulus-crossing index measures the number of passes over the original platform position relative to passes over the other three quadrants. […] Open field test for motor activity was performed as described previously"}, "[2]": {"test_system": "TgCRND8 mice", "experiment": "Cerebral amyloid plaque burden (anti-Aβ immunostaining, image analysis)", "format": "in vivo, mouse", "details": "TgCRND8 mice at six months of age; vs untreated", "method": "Cerebral amyloid burden. […] To generate sets of systematic uniform random sections, 5 μm serial sections were collected across the entire hemisphere. Sets of sections at 50 μm intervals were used for analyses (10-14 sections/set). Plaques were identified after antigen retrieval with formic acid, and incubation with primary anti-Aβ antibody (Dako M-0872), followed by secondary antibody (Dako StreptABCcomplex/horseradish kit). End products were visualized with DAB and were counter-stained with luxol fast blue. Amyloid plaque burden was assessed with Leco IA-3001 image analysis software interfaced with Leica microscope and Hitachi KP-M1U CCD video camera. Openlab imaging software (Improvision, Lexington, Mass.) was then used to convert micrographs to binary images for plaque number and plaque area determinations. Vascular amyloid burden was defined as amyloid originating from or surrounding blood vessels and was analysed similarly. Cerebral Aβ burden. […] Sets of sections at […] intervals for analyses (10-14 sections per set) were used. Plaques with primary Aβ-specific antibody (Dako M-0872) were identified and visualized with DAB. AP plaque burden was assessed with Openlab imaging software (Improvision) and used to convert micrographs to binary images for determinations of plaque number and plaque area. Vascular Aβ burden was defined as Aβ plaques originating from or surrounding blood vessels and was analyzed similarly. Cerebral Aβ burden. […] To generate sets of systematic uniform random sections, 5 μm serial sections were collected across the entire hemisphere. Sets of sections at 50 μm intervals were used for analyses (10-14 sections/set). Plaques were identified after antigen retrieval with formic acid, and incubation with primary anti-Aβ antibody (Dako M-0872), followed by secondary antibody (Dako StreptABCcomplex/horseradish kit). End products were visualized with DAB and were counter-stained with luxol fast blue. Aβ plaque burden was assessed with Leco IA-3001 image analysis software interfaced with Leica microscope and Hitachi KP-M1U CCD video camera. Openlab imaging software (Improvision, Lexington, Mass.) was then used to convert micrographs to binary images for plaque number and plaque area determinations. Vascular Aβ burden was defined as Aβ plaques originating from or surrounding blood vessels and was analyzed similarly."}, "[3]": {"test_system": "TgCRND8 mice", "experiment": "Survival census (Kaplan-Meier)", "format": "in vivo, mouse", "details": "prophylactic treatment, vs untreated, n=35 per group", "method": "(§1) Survival Census: The probability of survival was assessed by the Kaplan-Meier technique, computing the probability of survival at every occurrence of death, thus making it suitable for small sample sizes. For the analyses of survival, 35 mice were used for each treatment group. The Tarone-Ware test was used to assess effects of treatments.\nas §1, with “census.” for “Census:”, “using” for “by”"}, "[4]": {"details": "6-18 grams/day/adult or 86-257 mg/Kg/day; cited from earlier work"}, "[5]": {"target": "Aβ (Homo sapiens, UniProt P05067)", "sequence (P05067 672-713 limits assumed)": "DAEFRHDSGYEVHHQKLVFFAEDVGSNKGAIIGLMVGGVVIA", "details": "reference [11]; cited from earlier work"}, "[6]": {"experiment": "Pilot in vivo studies", "details": "data not shown"}, "[7]": {"test_system": "mouse model of Huntington disease", "details": "oral administration; reference [26]; cited from earlier work"}},
  "data": [
    {"smiles": "OC[C@@H](O)[C@@H](O)[C@H](O)[C@H](O)CO", "note": "[mannitol, reference compound]", "values": [
      {"measurement": "cognitive performance compared with non-Tg littermates", "setting": "[1]", "result": "significantly different from mannitol treated non-Tg littermates"},
      {"measurement": "cognitive performance compared with untreated TgCRND8 mice", "setting": "[1]", "result": "no effect on behavior"},
      {"measurement": "cognitive performance compared with untreated TgCRND8 mice", "setting": "[1]; listed as Mannitol", "result": "not significantly different from untreated TgCRND8 mice"},
      {"measurement": "plaque count as measure of total plaque burden", "setting": "[2]", "result": "indistinguishable from untreated TgCRND8 mice"},
      {"measurement": "survival (Kaplan-Meier cumulative survival)", "setting": "[3]", "result": "not significantly different"}
    ]},
    {"smiles": "O[C@H]1[C@H](O)[C@@H](O)[C@H](O)[C@@H](O)[C@H]1O", "note": "[myo-cyclohexanehexol, 1,2,3,5/4,6-(myo-) cyclohexanehexol]", "values": [
      {"measurement": "toxicity", "setting": "[4]", "result": "no toxicity"},
      {"measurement": "effectiveness in prior in vitro studies", "setting": "[5]", "result": "only weakly effective"},
      {"measurement": "benefit in pilot in vivo studies", "setting": "[6]", "result": "no significant benefit"}
    ]},
    {"smiles": "OC[C@H]1O[C@H](O[C@H]2O[C@H](CO)[C@@H](O)[C@H](O)[C@H]2O)[C@H](O)[C@@H](O)[C@@H]1O", "note": "[trehalose]", "values": [
      {"measurement": "effects in mouse model of Huntington disease", "setting": "[7]", "result": "decreased polyglutamine aggregates in brain, improved motor dysfunction and extended lifespan"}
    ]}
  ]
}
